From patent publication US20150133495A1 (ViroCura Therapeutics, Inc., priority 2013, published 2015)

System: HCV replicon (HCV1b sub-genomic, Huh-7 cells)
Experiment: HCV replicon RNA replication assay (luciferase reporter)
Assay type: cell-based, Hepatitis C virus (CON-1 genotype b)
Settings: Hepatitis C virus, Huh-7, 72 h, read-out: EC50 (Range)
Description: All curve fitting was conducted using non-linear regression analyses from PRISM (version 4.0c, GraphPad Inc.) and the determination of Rmax and EC50 or IC50 parameters were obtained from sigmoidal dose-response phase (variable slope) equation.
The replicon HCV1b is generated based on the wild-type sequence CON-1 genotype b (GenBank accession number AJ238799; Lohmann et al., Science 1999, 285: 110-113) and expressed the sub-genomic fragment HCV NS3-NS4A-NS4B-NS5A-NS5B. The replicon contain a hybrid HCV-IRES 5′UTR, a modified luciferase reporter gene expressed as a luciferase-Ubi-neomycin phosphotransferase gene fusion and an EMCV IRES NS3-NS5B subgenomic fragment with its 3′UTR. To generate cell lines harboring the replicon, Huh-7 cells are electroporated with purified in vitro HCV1b RNA transcripts and stable cell lines are selected in the presence of G418. Stable replicon cell lines are established as described in Science 1999, 285: 110-113. The amount of luciferase expressed by selected cells directly correlates with the level of HCV RNA replication, as measured by real-time PCR.
Stable HCV replicon cells are maintained in Dulbecco's Modified Eagle Medium (DMEM) supplemented with 10% FBS and 0.5 mg/ml G418. During the assay, DMEM supplemented with 10% FBS, containing 0.5% DMSO and lacking G418 are used as assay medium. For the assay, cell stocks are trypsinized and diluted in assay medium to distribute 7,500 cells in 96-well plates. The plates are then incubated at 37° until compound addition. Serial dilutions of the test compound are prepared in 100% DMSO, before dilution in assay medium to a final DMSO concentration of 0.5% to generate a concentration dose response curves. A fixed volume from each well of the compound dilution plate is transferred to a corresponding well of the cell culture plate. The cell culture plate is incubated at 37° C. with 5% CO2 for 72 hours. Following the 72 h incubation period, the medium is aspirated from the 96-well assay plate and a volume of 50_l of lysis buffer 100 mM Tris acetate, 20 mM Mg acetate, 2 mM EGTA, 3.6 mM ATP, 1% Brij 58, 0.7%_-mercaptoethanol containing 45_g/ml luciferine (pH 7.9) is added to each well. The luciferase activity is determined using the luciferase substrate and the luminescence is detected on a MicroBeta JET 1450 LSC & Luminescence Counter (Perkin Elmer) instrument. The luminescence in each well of the culture plate is a measure of the amount of HCV RNA replication in the presence of various concentrations of inhibitor. The % inhibition is calculated for each inhibitor concentration and used to determine the concentration that results in 50% inhibition of HCV replication (EC50).

## COc1ccccc1C/C(N)=N/OC(=O)c1ccccc1-c1ccccc1C(=O)OC(C)C [Example 28, (Z)-isopropyl 2′-((((1-amino-2-(2-methoxyphenyl)ethylidene)amino)oxy)carbonyl)-[1,1′-biphenyl]-2-carboxylate]
  EC50: < 500 nM

## Cc1cccc(-c2ccccc2)c1C(=O)O/N=C(\N)c1ccc(OCc2ccc(Cl)cc2)cc1 [Example 29, (Z)-4-((4-chlorobenzyl)oxy)-N′-((3-methyl-[1,1′-biphenyl]-2-carbonyl)oxy)benzimidamide]
  EC50: < 500 nM

## Cc1nc(/C(N)=N\OC(=O)c2c(-c3ccccc3)noc2C)cs1 [Example 30, (E)-2-methyl-N′-((5-methyl-3-phenylisoxazole-4-carbonyl)oxy)thiazole-4-carboximidamide]
  EC50: 1000 to 10000 nM

## Cc1noc(C)c1C(=O)O/N=C(\N)c1ccc(Oc2ccccc2)cc1 [Example 31, (Z)—N′-((3,5-dimethylisoxazole-4-carbonyl)oxy)-4-phenoxybenzimidamide]
  EC50: 1000 to 10000 nM

## Cc1noc(C)c1C(=O)O/N=C(\N)c1ccc(OCc2ccc(Cl)cc2)cc1 [Example 32, (Z)-4-((4-chlorobenzyl)oxy)-N′-((3,5-dimethylisoxazole-4-carbonyl)oxy)benzimidamide]
  EC50: 500 to 1000 nM

## N/C(=N\OC(=O)c1cccc2ccccc12)c1ccc2c(c1)OCO2 [Example 33, (Z)—N′-((1-naphthoyl)oxy)benzo[d][1,3]dioxole-5-carboximidamide]
  EC50: 500 to 1000 nM

## Cc1onc(-c2ccccc2Cl)c1C(=O)O/N=C(\N)c1cccc(Br)c1 [Example 34, (Z)-3-Bromo-N′-((3-(2-chlorophenyl)-5-methylisoxazole-4-carbonyl)oxy)benzimidamide]
  EC50: 1000 to 10000 nM

## N/C(=N\OC(=O)c1ccccc1C(F)(F)F)c1ccc2c(c1)OCO2 [Example 35, (Z)—N′-((2-(trifluoromethyl)benzoyl)oxy)benzo[d][1,3]dioxole-5-carboximidamide]
  EC50: 1000 to 10000 nM

## Cc1onc(-c2ccccc2Cl)c1C(=O)O/N=C(\N)c1ccc(-c2csnn2)cc1 [Example 36, (Z)—N′-((3-(2-chlorophenyl)-5-methylisoxazole-4-carbonyl)oxy)-4-(1,2,3-thiadiazol-4-yl)benzimidamide]
  EC50: 500 to 1000 nM

## Cc1cccc(C)c1C(=O)O/N=C(\N)Cc1ccc(OCc2ccc(F)cc2)cc1 [Example 37, (Z)—N′-((2,6-dimethylbenzoyl)oxy)-2-(4-((4-fluorobenzyl)oxy)phenyl)acetimidamide]
  EC50: 500 to 1000 nM

## CC(C)OC(=O)c1ccccc1-c1ccccc1C(=O)O/N=C(\N)c1ccc2c(c1)OCO2 [Example 38, (Z)-isopropyl 2′-((((amino(benzo[d][1,3]dioxol-5-yl)methylene)amino)oxy)carbonyl)-[1,1′-biphenyl]-2-carboxylate]
  EC50: < 500 nM

## Cc1cccc(C)c1C(=O)O/N=C(\N)c1ccc(OCc2ccc(Cl)cc2)cc1 [Example 40, (Z)-4-((4-chlorobenzyl)oxy)-N′-((2,6-dimethylbenzoyl)oxy)benzimidamide]
  EC50: < 500 nM

## Cc1cccc(C)c1C(=O)O/N=C(\N)c1ccccc1OCc1ccc(F)cc1 [Example 41, (Z)—N′-((2,6-dimethylbenzoyl)oxy)-2-((4-fluorobenzyl)oxy)benzimidamide]
  EC50: < 500 nM

## Cc1cccc(C)c1C(=O)O/N=C(\N)c1ccc(-c2csnn2)cc1 [Example 42, (Z)—N′-((2,6-dimethylbenzoyl)oxy)-4-(1,2,3-thiadiazol-4-yl)benzimidamide]
  EC50: 500 to 1000 nM

## Cc1ccc2ccccc2c1C(=O)O/N=C(\N)c1ccc2c(c1)OCO2 [Example 43, (Z)—N′-((2-methyl-1-naphthoyl)oxy)benzo[d][1,3]dioxole-5-carboximidamide]
  EC50: 500 to 1000 nM

## N/C(=N\OC(=O)c1ccccc1Cc1ccccc1)c1ccc2c(c1)OCO2 [Example 44, (Z)—N′-((2-benzylbenzoyl)oxy)benzo[d][1,3]dioxole-5-carboximidamide]
  EC50: 500 to 1000 nM

## N/C(=N\OC(=O)c1ccccc1-c1ccccc1C(=O)O)c1ccc2c(c1)OCO2 [Example 45, (Z)-2′-((((amino(benzo[d][1,3]dioxol-5-yl)methylene)amino)oxy)carbonyl)-[1,1′-biphenyl]-2-carboxylic acid]
  EC50: > 10000 nM

## COc1ccc(/C(N)=N/OC(=O)c2c(-c3ccccc3Cl)noc2C)cc1 [Example 46, (Z)—N′-((3-(2-chlorophenyl)-5-methylisoxazole-4-carbonyl)oxy)-4-methoxybenzimidamide]
  EC50: 500 to 1000 nM

## Cc1onc(-c2ccccc2Cl)c1C(=O)O/N=C(\N)c1ccc2ccccc2n1 [Example 47, (Z)—N′-((3-(2-chlorophenyl)-5-methylisoxazole-4-carbonyl)oxy)quinoline-2-carboximidamide]
  EC50: 1000 to 10000 nM

## Cc1onc(-c2ccccc2Cl)c1C(=O)O/N=C(\N)c1ccc(OCc2ccc(Cl)nc2)cc1 [Example 49, (Z)—N′-((3-(2-chlorophenyl)-5-methylisoxazole-4-carbonyl)oxy)-4-((6-chloropyridin-3-yl)methoxy)benzimidamide]
  EC50: < 500 nM

## COc1cccc(/C(N)=N/OC(=O)c2c(-c3ccccc3Cl)noc2C)c1 [Example 50, (Z)—N′-((3-(2-chlorophenyl)-5-methylisoxazole-4-carbonyl)oxy)-3-methoxybenzimidamide]
  EC50: 500 to 1000 nM
